Where a name gives a salt, the structure may show the parent alone. Read-outs that look alike come from different tables or passages of the source.
Legend:
[1] = system: Leishmania donovani (L. d.); assay: In vitro assay against Leishmania donovani; assay type: cell-based
Procedure: (§1) In vitro antiprotozoal activities were measured following established protocols. […] E., et al., Bioorg.

L-6 rat mycoblast cells [2] = assay: Cell toxicity assay in L-6 cells
[3] = system: Plasmodium falciparum (P. f.); assay: In vitro antiprotozoal activity against Plasmodium falciparum; assay type: cell-based
Procedure: as §1

[4] = system: Trypanosoma brucei rhodesiense (T. b. r.); assay: In vitro antiprotozoal activity against Trypanosoma brucei rhodesiense; assay type: cell-based
Procedure: as §1

[5] = system: STIB 900 strain of Trypanosoma brucei rhodesiense; assay: In vivo activity against T. b. r. STIB 900 in a mouse model; conditions: for responders at 20 mg/kg / responders at 25 mg/kg / responders at 5 mg/kg: Trypanosoma brucei, 1440 h, read-out: Cures (number of mice that survive and are parasite free for 60 days); for Survival (average days of survival) / Cures (number of mice that survive and are parasite free for 60 days): mouse, days 3-6 post-infection; for Survival (average days of survival): untreated controls expire between 7 and 8 days; for Cures (number of mice that survive and are parasite free for 60 days): groups of four mice
Procedure: The activities of compounds 4, 5, 6, 11, 12, 18, 20, 22, 27, 28, 30 and 33 against the STIB 900 strain of Trypanosoma brucei rhodesiense (T. b. r.) in a mouse model are shown in Table 2. […] Groups of four mice were infected intraperitoneally with 2×10^5 bloodstream forms of T. b. r. STIB 900 which originates from a patient in Tanzania. On days 3, 4, 5, and 6 post-infection the experimental groups were treated with the drugs either by the intraperitoneal or for prodrugs by the oral route. Usually the highest tolerated dose was used which was determined in a pretoxicological experiment. Parasitemia of the mice was checked daily up to day 14 post-infection and thereafter 2 times per week up to day 60. One group of mice was not treated and acted as control. For relapsing mice, the day of death was recorded and the survival time determined.

L-6 rat mycoblast cells [6] = system: L-6 rat mycoblast cells
[7] = Leishmania donovani, in vitro, read-out: IC50 values versus L.d.
[8] = Leishmania donovani, in vitro, read-out: L.d. C50
[9] = Plasmodium falciparum, in vitro, read-out: IC50 values versus P.f.
[10] = Plasmodium falciparum, in vitro, read-out: P.f. IC50
[11] = Trypanosoma brucei, RHODESIENSE, in vitro, read-out: IC50 values versus T.b.r.
[12] = Trypanosoma brucei, RHODESIENSE, in vitro, read-out: T.b.r. IC50
[13] = in vitro, read-out: T.b.r. IC50

With `Cl.Cl.N=C(N)c1ccc(-c2ccc(-c3ccc(C(=N)N)cc3)[se]2)cc1` [Compound 4, 2,5-Bis(4-amidinophenyl)selenophene Dihydrochloride] the IC50 ([1]; Leishmania donovani, read-out: IC50 values versus L.d.) was < 200 nM, the IC50 ([1]; Leishmania donovani, read-out: L.d. C50) was 170 nM and the Cytotoxocity (L-6 rat mycoblast cells [2]) was 9.7 µM. The IC50 ([3]; Plasmodium falciparum, read-out: IC50 values versus P.f.) was ≤ 14 nM, the IC50 ([3]; Plasmodium falciparum, read-out: P.f. IC50) was 2 nM and the IC50 ([4]; Trypanosoma brucei, RHODESIENSE, read-out: IC50 values versus T.b.r.) was ≤ 26 nM. For the same compound, the IC50 ([4]; Trypanosoma brucei, RHODESIENSE, read-out: T.b.r. IC50) was 2 nM, the responders at 20 mg/kg ([5]; ip) was 50% and the “Survival (average days of survival)” value ([5]; ip, 20 mg/kg) was 55.5 days.
With `Cl.Cl.N=C(NO)c1ccc(-c2ccc(-c3ccc(C(=N)NO)cc3)[se]2)cc1` [Compound 5, 2,5-Bis[4-(N-hydroxyamidino)phenyl]selenophene Dihydrochloride] the responders at 25 mg/kg ([5]; po) was 0% and the “Survival (average days of survival)” value ([5]; po, 25 mg/kg) was 11.5 days.
In the case of `CONC(=N)c1ccc(-c2ccc(-c3ccc(C(=N)NOC)cc3)[se]2)cc1.Cl.Cl` [Compound 6, 2,5-Bis[4-(N-methoxyamidino)phenyl]selenophene Dihydrochloride], the responders at 25 mg/kg ([5]; po) is reported as 0% and the “Survival (average days of survival)” value ([5]; po, 25 mg/kg) is reported as 15.25 days.
Compound `N=C(N)c1ccc(-c2ccc(-c3ccc(C(=N)N)cn3)[se]2)cc1` [Compound 11, 6-[5-(4-Amidinophenyl)-selenophen-2-yl]-nicotinamidine] has an IC50 [1, 7] of 1600 nM, an IC50 [1, 8] of 1600 nM and a Cytotoxocity (L-6 rat mycoblast cells [2]) of 27.7 µM. For the same compound, the IC50 [3, 9] was ≤ 14 nM, the IC50 [3, 10] was 10 nM and the IC50 [4, 11] was ≤ 26 nM. For the same compound, the IC50 [4, 12] was 9 nM, the responders at 5 mg/kg ([5]; ip) was 100% and the “Survival (average days of survival)” value ([5]; ip, 5 mg/kg) was 60 days.
For `N/C(=N\O)c1ccc(-c2ccc(-c3ccc(/C(N)=N/O)cn3)[se]2)cc1` [Compound 12], the responders at 25 mg/kg ([5]; po) was 0% and the “Survival (average days of survival)” value ([5]; po, 25 mg/kg) was 26 days.
For `N=C(N)c1ccc(-c2ccc(-c3ccc(C(=N)N)nc3)[se]2)cc1` [Compound 18, 5-[5-(4-Amidinophenyl)-selenophen-2-yl]-pyridine-2-amidine], the IC50 [1, 7] was < 200 nM, the IC50 [1, 8] was 130 nM and the Cytotoxocity (L-6 rat mycoblast cells [2]) was 13.4 µM. For the same compound, the IC50 [3, 9] was ≤ 14 nM, the IC50 [3, 10] was 14 nM and the IC50 [4, 11] was ≤ 26 nM. For the same compound, the IC50 [4, 12] was 26 nM, the responders at 5 mg/kg ([5]; ip) was 100% and the “Survival (average days of survival)” value ([5]; ip, 5 mg/kg) was 60 days.
`CO/N=C(\N)c1ccc(-c2ccc(-c3ccc(/C(N)=N/OC)nc3)[se]2)cc1` [Compound 20, 5-{5-[4-(N-Methoxyamidino)-phenyl]-selenophen-2-yl}-pyridine-2-N-methoxyamidine] was tested, and the responders at 25 mg/kg ([5]; po) was 25% and the “Survival (average days of survival)” value ([5]; po, 25 mg/kg) was 36.5 days.
With `N=C(N)c1ccc(-c2ccc(-c3ccc(C(=N)N)nc3)[se]2)cn1` [Compound 22, 2,5-Bis-[5-(2-amidino-pyridyl)]selenophene dihydrochloride] the IC50 [1, 7] was < 200 nM, the IC50 [1, 8] was 53 nM and the Cytotoxocity (L-6 rat mycoblast cells [2]) was 5.6 µM. For the same compound, the IC50 [3, 9] was ≤ 14 nM, the IC50 [3, 10] was 4 nM and the IC50 [4, 11] was ≤ 26 nM. For the same compound, the IC50 [4, 12] was 2 nM, the responders at 5 mg/kg ([5]; ip) was 100% and the “Survival (average days of survival)” value ([5]; ip, 5 mg/kg) was 60 days.
With `N=C(N)c1ccc(-c2ccc(-c3ccc(C(=N)N)cn3)[se]2)nc1` [Compound 27, 2,5-Bis-[2-(5-amidino-pyridyl)]selenophene dihydrochloride] the IC50 [1, 8] was 5600 nM, the Cytotoxocity (L-6 rat mycoblast cells [2]) was 158.3 µM and the IC50 [3, 9] was ≤ 14 nM. It also gave an IC50 [3, 10] of 10 nM, an IC50 [4, 12] of 50 nM and a responders at 5 mg/kg ([5]; ip) of 100%. The “Survival (average days of survival)” value ([5]; ip, 5 mg/kg) was 60 days.
For `NC(=NO)c1ccc(-c2ccc(-c3ccc(C(N)=NO)cn3)[se]2)nc1` [Compound 28, 2,5-Bis-[2-{5-(N-hydroxyamidino)-pyridyl}]selenophene dihydrochloride], the responders at 25 mg/kg ([5]; po) was 0% and the “Survival (average days of survival)” value ([5]; po, 25 mg/kg) was 20 days.
With `Cl.Cl.N=C(N)c1ccc(-c2ccc(-c3ccc(C(=N)N)cn3)s2)nc1` [Compound 30, 2,5-Bis-[2-(5-amidino-pyridyl)]thiophene dihydrochloride] the IC50 ([1]; in vitro, read-out: L.d. C50) was 23300 nM, the Cytotoxocity (L-6 rat mycoblast cells [6]) was >222 µM and the IC50 ([3]; in vitro, read-out: P.f. IC50) was 18 nM. The IC50 [4, 13] was 68 nM, the “Cures (number of mice that survive and are parasite free for 60 days)” value ([5]; ip, 5 mg/kg) was 1/4 and the “Survival (average days of survival)” value ([5]; ip, 5 mg/kg) was 50.25 days.
For `Cl.Cl.N=C(N)c1ccc(-c2ccc(-c3ccc(C(=N)N)nc3)s2)cn1` [Compound 33, 2,5-Bis-[5-(2-amidino-pyridyl)]thiophene dihydrochloride], the IC50 ([1]; in vitro, read-out: L.d. C50) was 127 nM, the Cytotoxocity (L-6 rat mycoblast cells [6]) was 4.8 µM and the IC50 ([3]; in vitro, read-out: P.f. IC50) was 3 nM. The IC50 [4, 13] was 4 nM, the “Cures (number of mice that survive and are parasite free for 60 days)” value ([5]; ip, 5 mg/kg) was 1/4 and the “Survival (average days of survival)” value ([5]; ip, 5 mg/kg) was 42.5 days.
For `N=C(N)c1ccc(-c2ccc(-c3ccc(C(=N)N)cc3)o2)cc1` [Furamidine, reference compound], the IC50 ([1]; in vitro, read-out: L.d. C50) was 2700 nM, the Cytotoxocity (L-6 rat mycoblast cells [2]) was 6.4 µM and the IC50 [4, 13] was 4.3 nM. The “Cures (number of mice that survive and are parasite free for 60 days)” value ([5]; ip, 10 mg/kg) was 0/4 and the “Survival (average days of survival)” value ([5]; ip, 10 mg/kg) was 44.5 days.
`N=C(N)c1ccc(OCCCCCOc2ccc(C(=N)N)cc2)cc1` [Pentamidine, reference compound] was tested, and the IC50 [1, 8] was 2000 nM, the responders at 20 mg/kg ([5]; ip) was 0% and the “Survival (average days of survival)” value ([5]; ip, 20 mg/kg) was 42.75 days.
